Measured values: patent US20250041264A1, “METHOD FOR TREATING DIABETES BY USING ANTRODIA CAMPHORATA COMPOUND” (Lantyng Biotechnology Corp., priority 2023, published 2025)
Entries after “also recorded” stand apart in the source; their conditions may differ.

Key:
Type 2 Diabetic Mice [1] = assay: ALT and AST biochemical analysis in blood (liver function); type: in vivo; conditions: later stage of treatment (4 weeks), Hitachi 7080 blood biochemical analyzer
Experimental: Mice were adapted to feed water and food arbitrarily every week, and after one week, they were fed in groups from the commercial feed 1320 (containing 11% fat) purchased from EJOY2 CORP. (New Taipei City, Taiwan) and D12451 (containing 45% high-fat feed) purchased from MEDGENE CO., LTD. (Taichung, Taiwan), induced for 12 weeks.
On the last day of the experiment, all animals (except for unplanned deaths) were fasted for 20 hours at the National Laboratory Animal Center and euthanized with pure carbon dioxide, followed by necropsy, organ weight (liver) and gross examination, including evaluation of liver and pancreas. Most lesions of animals were recorded at the time of final sacrifice, including scheduled euthanasia and unscheduled deaths. […]

Type 2 Diabetic Mice [2] = assay: Oral glucose tolerance test (OGTT), final week (16th week), high-fat-diet type 2 diabetic mice; type: in vivo, mice C57BL/6JNarl; conditions: for average blood sugar at 120 minutes (OGTT): n=6, 120 minutes
Experimental: This experiment uses four-week-old male mice C57BL/6JNarl from National Laboratory Animal Center (Taipei, Taiwan), and they were bred with 12 hours of light/dark cycle under the environment of 23° C.±2° C. Mice were adapted to feed water and food arbitrarily every week, and after one week, they were fed in groups from the commercial feed 1320 (containing 11% fat) purchased from EJOY2 CORP. (New Taipei City, Taiwan) and D12451 (containing 45% high-fat feed) purchased from […] CO., LTD. (Taichung, Taiwan), induced for 12 weeks. During the experiment, the body weight of the mice and the fasting blood sugar value were measured every week and their changes were recorded. The mean±3SD of fasting blood sugar in mice was calculated. If the fasting blood sugar value exceeds the mean±3SD of the normal diet group, tube feeding administration would be started for 4 weeks, and blood sugar tolerance would be tested by tail vein blood collection in the last week of the experiment. […] Referring to FIGS. 1-2, they show the test results of oral glucose tolerance test (OGTT), respectively. Group A (NFD), Group B (NFD+5), Group C (NFD+20), Group D (HFD), Group E (HFD+5), Group F (HFD+10), Group G (HFD+20), Group H (Glibenclamide). NFD refers to normal fat diet, HFD refers to high fat diet, and Glibenclamide is an oral hypoglycemic drug that belongs to type 2 (non-insulin dependent) diabetic patients.

Type 2 Diabetic Mice [3] = assay: Low-density lipoprotein (LDL) detection; type: in vivo, mice C57BL/6JNarl; conditions: HFD+5 group (SY1 5 mg/kg) compared with Western medicine group and HFD+10

Compound	liver function index (AST, ALT in blood) (Type 2 Diabetic Mice [1])	fasting blood sugar when no sugar water was fed (OGTT, 16th week) (Type 2 Diabetic Mice [2]; HFD, Glibenclamide 5 mg/kg, after 4 weeks of drug treatment)	effect on lowering blood sugar in the later stage of treatment (Type 2 Diabetic Mice [2]; HFD, Glibenclamide 5 mg/kg, after 4 weeks of drug treatment, compared with SY1)	effect on lowering LDL (Type 2 Diabetic Mice [3])	hypoglycemic effect compared with other groups (OGTT) (Type 2 Diabetic Mice [2]; HFD+5 group (SY1 5 mg/kg) versus HFD+10, HFD+20 and Glibenclamide groups, 5 mg/kg)	average blood sugar at 120 minutes (OGTT) (Type 2 Diabetic Mice [2]; HFD+5 group (high fat diet, SY1 5 mg/kg, tube feeding 4 weeks))	effect on lowering blood sugar 30 minutes after feeding sugar water (OGTT) (Type 2 Diabetic Mice [2]; HFD+5 low-dose group (SY1 5 mg/kg))	average blood sugar at 120 minutes (OGTT) (Type 2 Diabetic Mice [2]; HFD+10 group (high fat diet, SY1 10 mg/kg, tube feeding 4 weeks))	effect on lowering blood sugar 30 minutes after feeding sugar water (OGTT) (Type 2 Diabetic Mice [2]; HFD+10 middle-dose group (SY1 10 mg/kg))
COc1ccc(Cl)cc1C(=O)NCCc1ccc(S(=O)(=O)NC(=O)NC2CCCCC2)cc1 [Glibenclamide, reference compound]	increased and reached a significant difference	higher fasting blood sugar increase than any other group	worse than that of SY1						
COc1cc(C)c(OC)c2c1OCO2 [SY1, 4,7-dimethoxy-5-methyl-1,3-benzodioxole]	this phenomenon was not seen			not much different from that of the Western medicine group; also recorded: better than HFD+10	equivalent to that of the HFD+10 group; also recorded: more obvious than the high-dose HFD+20 and hypoglycemic drug Glibenclamide group	155.83	obvious effect on lowering blood sugar	155.33	obvious effect on lowering blood sugar
